For experiment [1], the system named is TMD-8 cells. The experiment can be described thus: TMD-8 proliferation inhibition experiment. Conditions: human diffuse large B lymphoma cells, three days incubation. It counts as cell-based. The procedure:
TMD-8 cells are human diffuse large B lymphoma (Mingzhou Bio, MZ-0832), cultured in 10% FBS+1% PS 1640 medium; OCI-LY10 is human diffuse large B lymphoma (BeNa Culture Collection, BNCC337742), cultured in 10% FBS+1% PS IMDM. Day 1: Cells at logarithmic growth phase were taken, counted and inoculated 600 TMD-8 or 2000 OCI-LY10 cells in a 384-well cell culture plate and cultured overnight. Day 2: A 3-fold gradient concentration stock solution of 400× compound was prepared with DMSO, and diluted 40-fold to a 10× compound stock solution with culture medium. The 10× compound stock solution was added to each cell culture well with a final concentration of 1× compound stock solution and a DMSO content of 0.25%. DMSO was used as experimental control, and culture medium was used as blank control. The incubation was continued for three days after compound addition. On the fifth day, 25 μL of […] was added to each well, mixed well and incubated for 10 minutes, then the chemiluminescence value (RLU value) was read. The cell proliferation inhibition rate (%)=(RLUcontrol−RLUcompound)/(RLUcontrol−RLUblank)×100% was calculated. The compound gradient dilution concentration and the corresponding cell proliferation inhibition rate were fit by using XLFit four-parameter method, and IC50 value was calculated.

The target in experiment [2] is BTK (Homo sapiens (Human), UniProt Q06187). The experiment can be described thus: BTK enzyme experiment (ADP-Glo kinase assay). It counts as biochemical. The conditions noted are these: 10 nM BTK, ATP 125 μM, Poly(Glu4, Tyr1), 90 minutes at 20° C.; read-out: BTK(WT) IC50. The method, boiled down: (§1)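 Wild-type or C481S BTK, added as 2× solution at 10 nM, preincubated 10 min with 3-fold compound dilutions in 50 mM HEPES pH 7.5, 10 mM MgCl2, 2 mM DTT, 0.0015% Brij-35. ADP-Glo luminescence norm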
(In general: In ADP-Glo the light output rises with the ADP produced.)

The target in experiment [3] is BTK (C481S) (Homo sapiens (Human), UniProt Q06187, C481S). Kind of experiment: BTK C481S enzyme experiment (ADP-Glo kinase assay). It counts as biochemical. Conditions: 10 nM BTK C481S, ATP 125 μM, Poly(Glu4, Tyr1), 90 minutes at 20° C. The method, boiled down:
as §1

Structures can show the parent of a compound that is named as a salt.

Chain of BTK (C481S) (Q06187 whole entry C481S): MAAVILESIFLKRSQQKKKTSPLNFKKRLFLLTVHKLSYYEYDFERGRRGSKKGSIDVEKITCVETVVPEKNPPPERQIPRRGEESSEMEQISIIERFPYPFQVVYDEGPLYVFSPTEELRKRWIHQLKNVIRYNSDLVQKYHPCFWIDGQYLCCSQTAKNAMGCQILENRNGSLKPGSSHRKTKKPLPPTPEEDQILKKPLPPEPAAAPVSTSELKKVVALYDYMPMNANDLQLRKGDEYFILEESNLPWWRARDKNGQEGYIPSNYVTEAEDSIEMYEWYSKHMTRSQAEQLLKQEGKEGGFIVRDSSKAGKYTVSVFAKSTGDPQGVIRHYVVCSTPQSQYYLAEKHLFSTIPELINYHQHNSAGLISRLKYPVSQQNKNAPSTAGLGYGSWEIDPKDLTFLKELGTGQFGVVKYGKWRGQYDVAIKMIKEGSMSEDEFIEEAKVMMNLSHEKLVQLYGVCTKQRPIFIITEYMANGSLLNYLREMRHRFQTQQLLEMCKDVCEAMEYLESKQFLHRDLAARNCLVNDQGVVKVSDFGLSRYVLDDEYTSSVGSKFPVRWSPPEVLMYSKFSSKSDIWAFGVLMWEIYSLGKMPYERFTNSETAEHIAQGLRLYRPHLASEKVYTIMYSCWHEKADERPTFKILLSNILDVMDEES
Chain of BTK (Q06187 whole entry): as the sequence (Q06187 whole entry C481S) above, with S481C counted along it

For orientation: IC50 means the concentration that gives 50% inhibition. As to `COC[C@]1(C)Nc2c(cnc3[nH]cc(C(=O)c4ccc(Oc5ncccc5Cl)cc4Cl)c23)NC1=O` [Z147, (S)-9-(2-chloro-4-((3-chloropyridin-2-yl)oxy)benzoyl)-2-(methoxymethyl)-2-methyl-1,2,4,7-tetrahydro-3H-pyrrolo[3′,2′:5,6]pyrido[3,4-b]pyrazin-3-one], the 50% inhibitory concentration (IC50) in experiment [1] (Homo sapiens, TMD8, 72 h) stood at 279 nM; in experiment [2], 11.1 nM; in experiment [3], 19.8 nM.
Regarding `O=C(c1ccc(Oc2ccccc2)cc1Cl)c1c[nH]c2ncc3c(c12)NC1(CCN(C(=O)C2CC2)C1)C(=O)N3` (stereo not drawn) [Z10], the IC50 in experiment [1] amounted to 310 nM; in experiment [2], 70.2 nM; in experiment [3], 25.4 nM.
The matching figures for `COC1CCC2(C1)Nc1c(cnc3[nH]cc(C(=O)c4ccc(Oc5ccccc5)cc4Cl)c13)NC2=O` (single isomer, unassigned) [Z25-3b, 9′-(2-chloro-4-phenoxybenzoyl)-3-methoxy-4′,7′-dihydrospiro[cyclopentane-1,2′-pyrrolo[3′,2′:5,6]pyrido[3,4-b]pyrazin]-3′(1′H)-one]: 140 nM, 15.1 nM and 10 nM.
As to `[2H]C([2H])([2H])OC[C@]1(C)Nc2c(cnc3[nH]cc(C(=O)c4ccc(Oc5cccc(F)c5)cc4Cl)c23)NC1=O` [Z162, (S)-9-(2-chloro-4-(3-fluorophenoxy)benzoyl)-2-((methoxy-d3)methyl)-2-methyl-1,2,4,7-tetrahydro-3H-pyrrolo[3′,2′:5,6]pyrido[3,4-b]pyrazin-3-one], the IC50 in experiment [1] (Homo sapiens, TMD8, 72 h) is 169 nM; in experiment [2], 25.6 nM; in experiment [3] it was 36 nM.
As to `N#C[C@H]1CC[C@@]2(C1)Nc1c(cnc3[nH]cc(C(=O)c4ccc(Oc5ccccc5)cc4Cl)c13)NC2=O` (single isomer, unassigned) [Z26-3], the half-maximal inhibitory concentration (IC50) in experiment [1] is 216 nM; in experiment [2] it was 34 nM; in experiment [3], 20.6 nM.
Take `COC[C@]1(C)Nc2c(cnc3[nH]cc(C(=O)c4ccc(Oc5c(OC)ccc(F)c5F)cc4Cl)c23)NC1=O` [Z177, (S)-9-(2-chloro-4-(2,3-difluoro-6-methoxyphenoxy)benzoyl)-2-(methoxymethyl)-2-methyl-1,2,4,7-tetrahydro-3H-pyrrolo[3′,2′:5,6]pyrido[3,4-b]pyrazin-3-one]: the IC50 was found to be 34.6 nM in experiment [1] (Homo sapiens, TMD8, 72 h); 6.4 nM in experiment [2]; 11.1 nM in experiment [3].
The matching figures for `COCC1(C)Nc2c(cnc3[nH]cc(C(=O)c4ccc(Oc5cc(C)ccn5)cc4Cl)c23)N(C)C1=O` (stereo not drawn) [Z65, 9-(2-chloro-4-((4-methylpyridin-2-yl)oxy)benzoyl)-2-(methoxymethyl)-2,4-dimethyl-1,2,4,7-tetrahydro-3H-pyrrolo[3′,2′:5,6]pyrido[3,4-b]pyrazin-3-one formate]: 509 nM, 30.6 nM and 31.2 nM.
The matching figures for `COC[C@]1(C)Nc2c(cnc3[nH]cc(C(=O)c4ccc(Oc5cccc(C#N)c5)cc4Cl)c23)NC1=O` [Z131, (S)-3-(3-chloro-4-(2-(methoxymethyl)-2-methyl-3-oxo-2,3,4,7-tetrahydro-1H-pyrrolo[3′,2′:5,6]pyrido[3,4-b]pyrazine-9-carbonyl)phenoxy)benzonitrile]: 307 nM, 26.9 nM and 37.8 nM.
For `CN1CCC2(C1)Nc1c(cnc3[nH]cc(C(=O)c4ccc(Oc5ccccc5)cc4Cl)c13)N(C)C2=O` (stereo not drawn) [Z8], the IC50 in experiment [1] amounted to 469 nM; in experiment [2], 73.6 nM; in experiment [3], 27.9 nM.
As to `C[C@@]1(COC(F)F)Nc2c(cnc3[nH]cc(C(=O)c4ccc(Oc5ccccc5)cc4Cl)c23)NC1=O` [Z139, (S)-9-(2-chloro-4-phenoxybenzoyl)-2-((difluoromethoxy)methyl)-2-methyl-1,2,4,7-tetrahydro-3H-pyrrolo[3′,2′:5,6]pyrido[3,4-b]pyrazin-3-one], the half-maximal inhibitory concentration (IC50) in experiment [1] (Homo sapiens, TMD8, 72 h) worked out at 106 nM; in experiment [2], 37.1 nM; in experiment [3], 22.1 nM.
The matching figures for `COC[C@]1(C)Nc2c(cnc3[nH]cc(C(=O)c4ccc(Oc5ncccc5F)cc4Cl)c23)NC1=O` [Z144, (S)-9-(2-chloro-4-((3-fluoropyridin-2-yl)oxy)benzoyl)-2-(methoxymethyl)-2-methyl-1,2,4,7-tetrahydro-3H-pyrrolo[3′,2′:5,6]pyrido[3,4-b]pyrazin-3-one]: 227 nM, 11.7 nM and 16.8 nM.
The matching figures for `COC1CCC2(C1)Nc1c(cnc3[nH]cc(C(=O)c4ccc(Oc5cc(C)ccn5)cc4Cl)c13)NC2=O` (stereo not drawn) [Z126, 9′-(2-chloro-4-((4-methylpyridin-2-yl)oxy)benzoyl)-3-methoxy-4′,7′-dihydrospiro[cyclopentane-1,2′-pyrrolo[3′,2′:5,6]pyrido[3,4-b]pyrazin]-3′(1′H)-one]: 183 nM, 5.7 nM and 13.4 nM.
The matching figures for `[2H]C([2H])([2H])OC[C@]1(C)Nc2c(cnc3[nH]cc(C(=O)c4ccc(Oc5ncccc5F)cc4Cl)c23)NC1=O` [Z145, (S)-9-(2-chloro-4-((3-fluoropyridin-2-yl)oxy)benzoyl)-2-((methoxy-d3)methyl)-2-methyl-1,2,4,7-tetrahydro-3H-pyrrolo[3′,2′:5,6]pyrido[3,4-b]pyrazin-3-one]: 166 nM, 9.3 nM and 13.1 nM.
Consider `COC[C@]1(C)Nc2c(cnc3[nH]cc(C(=O)c4ccc(Oc5ccccc5OC)cc4Cl)c23)NC1=O` [Z163, (S)-9-(2-chloro-4-(2-methoxyphenoxy)benzoyl)-2-(methoxymethyl)-2-methyl-1,2,4,7-tetrahydro-3H-pyrrolo[3′,2′:5,6]pyrido[3,4-b]pyrazin-3-one], for which the IC50 in experiment [1] (Homo sapiens, TMD8, 72 h) turned out to be 75.7 nM; in experiment [2], 10.6 nM; in experiment [3], 16.5 nM.
In the case of `[2H]C([2H])([2H])Oc1c(F)cccc1Oc1ccc(C(=O)c2c[nH]c3ncc4c(c23)N[C@@](C)(COC)C(=O)N4)c(Cl)c1` [Z178, (S)-9-(2-chloro-4-(3-fluoro-2-(methoxy-d3)phenoxy)benzoyl)-2-(methoxymethyl)-2-methyl-1,2,4,7-tetrahydro-3H-pyrrolo[3′,2′:5,6]pyrido[3,4-b]pyrazin-3-one], the concentration for half-maximal inhibition (IC50) was determined as 257 nM in experiment [1] (Homo sapiens, TMD8, 72 h); 36.2 nM in experiment [2]; 42.3 nM in experiment [3].
`COC[C@@]1(C)Nc2c(cnc3[nH]cc(C(=O)c4ccc(Oc5ccccc5)cc4Cl)c23)NC1=O` [Z13-2]: the IC50 in experiment [1] came to 183 nM; in experiment [2], 40 nM; in experiment [3], 23.2 nM.
With `COC[C@]1(C)Nc2c(cnc3[nH]cc(C(=O)c4ccc(Oc5ccccc5Cl)cc4Cl)c23)NC1=O` [Z164, (S)-9-(2-chloro-4-(2-chlorophenoxy)benzoyl)-2-(methoxymethyl)-2-methyl-1,2,4,7-tetrahydro-3H-pyrrolo[3′,2′:5,6]pyrido[3,4-b]pyrazin-3-one], the half-inhibitory concentration (IC50) in experiment [1] (Homo sapiens, TMD8, 72 h) was 145 nM; in experiment [2], 22.4 nM; in experiment [3], 30.1 nM.
As to `COCC[C@@]1(C)Nc2c(cnc3[nH]cc(C(=O)c4ccc(Oc5ccccc5)cc4Cl)c23)NC1=O` [Z78-1], the figures for the IC50 in experiment [1], in experiment [2] and in experiment [3] were 289 nM, 27.6 nM and 28.8 nM, respectively.

Values taken from patent US20240360154A1, “AROYL SUBSTITUTED TRICYCLIC COMPOUND, PREPARATION METHOD THEREFOR AND USE THEREOF” (GENFLEET THERAPEUTICS (SHANGHAI) INC., priority 2020, published 2024).
